According to US20260265262A1, “CDK2 INHIBITORS AND METHODS OF USING THE SAME” (Cedilla Therapeutics, Inc., priority 2022, published 2026):
pIC50: −log10 of the molar value.

How the values were obtained:
CDK2/Cyclin E1 [1] = molecular target: T1, CDK2/Cyclin E1 (Homo sapiens, UniProt P24941); assay: CDK2/Cyclin E1 Caliper LabChip EZ Reader mobility shift assay; type: biochemical; conditions: 2.5 nM CDK2/Cyclin E1, 100 μM ATP, 1.5 μM fluorescent peptide, 30 min pre-incubation; read-out: Caliper Assay (CDK2/CCNE1): IC50
Protocol: Inhibition of CDK2/Cyclin E1 activity in the presence of compounds of the present disclosure was evaluated using a CaliperLabChip® EZ Reader mobility shift assay. In the assay, CDK2/Cyclin E1 (Eurofins, 14-475) catalyzed the phosphorylation of a fluorescently tagged peptide 5-FAM-QSPKKG-CONH2 (PerkinEliner, FL Peptide 18) which induced a difference in capillary electrophoresis mobility. The peptide substrate and product were measured, and the conversion ratio was used to determine the inhibition (as % activity and IC50 values) of CDK2/Cyclin E1. Reactions contained 50 mM HEPES pH 7.5, 10 mM MgCl2, 1 mM EDTA, 2 mM DTT, 0.01% Brij35, 0.5 mg/mL BSA, 0.1% DMSO, 2.5 nM CDK2/Cyclin E1, 100 μM ATP, and 1.5 μM fluorescent peptide substrate.
Dose titrations of inhibitors in 100% DMSO were combined with 3.25 nM CDK2/Cyclin E1 and 130 μM of ATP in reaction buffer. The mixtures were incubated for 30 minutes before the addition of fluorescent peptide substrate to initiate the kinase reaction. The final conditions were 2.5 nM CDK2/Cyclin E1, 100 μM ATP, and 1.5 μM fluorescent peptide. The reactions were stopped after 100 minutes with the addition of EDTA (400 mM final EDTA concentration). The stopped reactions were analyzed on a Caliper LabChip® EZ Reader II. The conversion ratios were normalized to yield % activity, plotted against compound concentration, and fit to a four-parameter equation to determine the IC50 for each compound.

Kuramochi cells = assay: IncuCyte cell proliferation assay; type: cell-based; conditions: Kuramochi cells labeled with mApple-H2B, cell count 0 to 72 hours, 20 μM top concentration; read-out: IncuCyte Kuramochi RB-WT: IC50
How it was run: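 Kuramochi cells expressing mApple-H2B were treated with a 10-point, ½-log dilution series (top 20 μM). Fluorescent nuclei were counted by IncuCyte imaging at 0 and 72 h. The fold change in cell count was normalized to DMSO wells and fitted to dose-response curves to give […].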

CDK2/Cyclin E1 [2] = molecular target: T1, CDK2/Cyclin E1; assay: ADP-Glo Luminescent Kinase Assay (CDK2/E1-37C); type: biochemical; conditions: 0.18 nM CDK2/Cyclin E1, 100 μM ATP, 1.5 μM Histone H1, 37° C., 60 min pre-incubation; read-out: ADPGLO (CDK2/E1-37C): IC50
How it was run: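 Human CDK2/Cyclin E1 preincubated with inhibitor 60 min at 37 °C, then reacted 90 min at 37 °C with final 0.18 nM enzyme, 100 μM ATP, 1.5 μM Histone H1 in HEPES pH 7.5 buffer. ADP formed read by ADP-Glo luminescence; IC50 from four-parameter fit.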

pIC50 (CDK2/Cyclin E1 [1]) | pIC50 (CDK2/Cyclin E1 [2]) | SMILES | pIC50 (Kuramochi cells)
6.00 to 7.00 | – | C[C@@H](OCC1(CO)CC=CCC1)C(NC(=O)[C@@H]1CN(C(=O)c2cnco2)CC12CN(C(=O)C(C)(C)C1CC1)C2)C(C)(C)O (single isomer, unassigned) [Example I-57] | < 4.70
6.00 to 7.00 | – | CNC(=O)C(NC(=O)[C@@H]1CN(C(=O)c2cncs2)CC12CN(CC1CCCO1)C2)[C@@H](C)OCC12CCC(CC1)OC2 (stereo partly drawn) [Example I-59, (8S)—N-((3R)-3-((2-oxabicyclo[2.2.2]octan-4-yl)methoxy)-1-(methylamino)-1-oxobutan-2-yl)-2-((tetrahydrofuran-2-yl)methyl)-6-(thiazole-5-carbonyl)-2,6-diazaspiro[3.4]octane-8-carboxamide] | 4.70 to 5.30
– | > 6.30 | COC(=O)CCNC(=O)[C@@H](NC(=O)[C@@H]1CN(C(=O)c2cnn(Cc3ccc(F)cc3)c2)CC12CN(C(=O)C1(C(F)(F)F)CC1)C2)[C@@H](C)OCC12CCC(CC1)OC2 [Example I-111, Methyl 3-((2S,3R)-3-((2-oxabicyclo[2.2.2]octan-4-yl)methoxy)-2-((S)-6-(1-(4-fluorobenzyl)-1H-pyrazole-4-carbonyl)-2-(1-(trifluoromethyl)cyclopropane-1-carbonyl)-2,6-diazaspiro[3.4]octane-8-carboxamido)butanamido)propanoate] | < 4.70
– | > 6.30 | C[C@@H](OCC12CCC(CC1)OC2)[C@H](NC(=O)[C@@H]1CN(C(=O)c2cnn(Cc3ccccc3C(=O)O)c2)CC12CN(C(=O)C1(C(F)(F)F)CC1)C2)C(=O)N1CCNC2(CC2)C1 [Example I-112, 2-((4-((S)-8-(((2S,3R)-3-((2-oxabicyclo[2.2.2]octan-4-yl)methoxy)-1-oxo-1-(4,7-diazaspiro[2.5]octan-7-yl)butan-2-yl)carbamoyl)-2-(1-(trifluoromethyl)cyclopropane-1-carbonyl)-2,6-diazaspiro[3.4]octane-6-carbonyl)-1H-pyrazol-1-yl)methyl)benzoic acid] | < 4.70
– | 5.30 to 6.30 | C[C@@H](OCC12CCC(CC1)OC2)[C@@H](COC1CCOCC1)NC(=O)[C@@H]1CN(C(=O)c2cncs2)CC12CN(C(=O)C1(C(F)(F)F)CC1)C2 [Example I-113, (8S)—N-[(2R,3R)-3-{2-oxabicyclo[2.2.2]octan-4-ylmethoxy}-1-(oxan-4-yloxy)butan-2-yl]-6-(1,3-thiazole-5-carbonyl)-2-[1-(trifluoromethyl)cyclopropanecarbonyl]-2,6-diazaspiro[3.4]octane-8-carboxamide] | < 4.70
– | > 6.30 | COC(=O)[C@@H]1CN(C(=O)[C@@H](NC(=O)[C@@H]2CN(C(=O)c3cnn(Cc4ccc(C#N)cc4)c3)CC23CN(C(=O)C2(C(F)(F)F)CC2)C3)[C@@H](C)OCC23CCC(CC2)OC3)CCN1C(=O)OC(C)(C)C [Example I-114] | 4.70 to 5.30
– | > 6.30 | CCCN1CCC2(CC1)CCN(C(=O)C(NC(=O)C1CN(C(=O)c3cnn(Cc4ccccc4C(=O)O)c3)CC13CN(C(=O)C1(C(F)(F)F)CC1)C3)C(C)OCC13CCC(CC1)OC3)CC2 (stereo not shown) [Example I-115] | < 4.70
6.00 to 7.00 | – | COC[C@H]1CCCN(C(=O)[C@@H](NC(=O)[C@H]2CN(C(=O)c3cncs3)CC23CN(C(=O)[C@H]2CC2(C)C)C3)[C@@H](C)OCC2CCCCC2)C1 [Example I-116, (R)—N-((2S,3R)-3-(cyclohexylmethoxy)-1-((S)-3-(methoxymethyl)piperidin-1-yl)-1-oxobutan-2-yl)-2-((S)-2,2-dimethylcyclopropanecarbonyl)-6-(thiazole-5-carbonyl)-2,6-diazaspiro[3.4]octane-8-carboxamide] | 4.70 to 5.30
– | > 6.30 | C[C@@H](OCC1CCOCC1)[C@H](NC(=O)[C@@H]1CN(C(=O)c2cnn(Cc3ccc(C(F)(F)F)cc3)c2)CC12CN(C(=O)C1(C(F)(F)F)CC1)C2)C(=O)N1CCC(c2ccc(C(=O)O)cc2)CC1 [I-64 1st, 4-(1-(O-((tetrahydro-2H-pyran-4-yl)methyl)-N—((S)-6-(1-(4-(trifluoromethyl)benzyl)-1H-pyrazole-4-carbonyl)-2-(1-(trifluoromethyl)cyclopropane-1-carbonyl)-2,6-diazaspiro[3.4]octane-8-carbonyl)-L-threonyl)piperidin-4-yl)benzoic acid] | < 4.70
– | < 5.00 | C[C@@H](OCC12CCC(CC1)OC2)[C@H](NC(=O)[C@@H]1CN(C(=O)c2cnc(O)cn2)CC12CN(C(=O)C1(C(F)(F)F)CC1)C2)C(=O)N1CCC(c2ccc(C(=O)O)c(C(F)(F)F)c2)CC1 [I-89 1st, 4-(1-(O-((2-oxabicyclo[2.2.2]octan-4-yl)methyl)-N—((S)-6-(5-hydroxypyrazine-2-carbonyl)-2-(1-(trifluoromethyl)cyclopropane-1-carbonyl)-2,6-diazaspiro[3.4]octane-8-carbonyl)-L-threonyl)piperidin-4-yl)-2-(trifluoromethyl)benzoic acid] | < 4.70
– | > 6.30 | C[C@@H](OCC12CCC(CC1)OC2)[C@H](NC(=O)[C@@H]1CN(C(=O)c2cnc(O)cn2)CC12CN(C(=O)C1(C(F)(F)F)CC1)C2)C(=O)N1CCC(c2ccc(C(=O)O)c(C(F)(F)F)c2)CC1 [I-89 3rd, 4-(1-(O-((2-oxabicyclo[2.2.2]octan-4-yl)methyl)-N-(6-(5-hydroxypyrazine-2-carbonyl)-2-(1-(trifluoromethyl)cyclopropane-1-carbonyl)-2,6-diazaspiro[3.4]octane-8-carbonyl)-L-threonyl)piperidin-4-yl)-2-(trifluoromethyl)benzoic acid] | < 4.70

Second part, the compound before the results:

SMILES | pIC50 (CDK2/Cyclin E1 [1]) | pIC50 (CDK2/Cyclin E1 [2]) | pIC50 (Kuramochi cells)
Cc1nc(C)c(C(=O)N2C[C@@H](C(=O)N[C@H](C(=O)N3CCC(OC(F)(F)F)CC3)[C@@H](C)OCC3(CO)CC=CCC3)C3(C2)CN(C(=O)[C@H]2CC2(C)C)C3)s1 (stereo in doubt) [Example I-51] | 7.00 to 8.00 | – | 5.30 to 6.30
COC1CCN(C(=O)[C@@H](NC(=O)[C@@H]2CN(C(=O)c3cncs3)CC23CN(C(=O)[C@H]2CC2(C)C)C3)[C@@H](C)OCC2(CO)CC=CCC2)CC1 (stereo in doubt) [Example I-54] | > 8.00 | – | 5.30 to 6.30
COC1CCN(C(=O)[C@@H](NC(=O)[C@@H]2CN(C(=O)c3sc(C)nc3C)CC23CN(C(=O)[C@H]2CC2(C)C)C3)[C@@H](C)OCC2(CO)CC=CCC2)CC1 (stereo in doubt) [Example I-55] | 7.00 to 8.00 | – | < 4.70
COC(=O)[C@@H]1CCCCN1C(=O)[C@@H](NC(=O)[C@@H]1CN(C(=O)c2cnn(Cc3ccccc3)c2)CC12CN(C(=O)[C@H]1CC1(C)C)C2)[C@@H](C)OCC1CCCCC1 [Example I-38] | > 8.00 | > 6.30 | > 6.30
COC(=O)C1(CNC(=O)[C@@H](NC(=O)[C@@H]2CN(C(=O)c3cnn(Cc4ccccc4)c3)CC23CN(C(=O)[C@H]2CC2(C)C)C3)[C@@H](C)OCC2CCCCC2)CC1 [Example I-39] | > 8.00 | > 6.30 | > 6.30
Cc1nc(C)c(C(=O)N2C[C@@H](C(=O)NC(C(=O)N3CCC(C(F)(F)F)CC3)[C@@H](C)OCC3(CO)CC=CCC3)C3(C2)CN(C(=O)[C@H]2CC2(C)C)C3)s1 (stereo partly drawn) [Example I-50, (8S)-2-((S)-2,2-dimethylcyclopropane-1-carbonyl)-6-(2,4-dimethylthiazole-5-carbonyl)-N-((2S,3R)-3-((1-(hydroxymethyl)cyclohex-3-en-1-yl)methoxy)-1-oxo-1-(4-(trifluoromethyl)piperidin-1-yl)butan-2-yl)-2,6-diazaspiro[3.4]octane-8-carboxamide] | > 8.00 | – | 5.30 to 6.30
C[C@@H](OCC1(CO)CC=CCC1)[C@H](NC(=O)[C@@H]1CN(C(=O)c2cncs2)CC12CN(C(=O)[C@H]1CC1(C)C)C2)C(=O)N1CCC(C)(C)CC1 (stereo partly shown) [Example I-53] | > 8.00 | – | > 6.30
Cc1nc(C)c(C(=O)N2C[C@@H](C(=O)NC([C@@H](C)OCC3(CO)CC=CCC3)C(C)(C)O)C3(C2)CN(C(=O)C(C)(C)C2CC2)C3)s1 (stereo partly drawn) [Example I-56, (8S)-2-(2-cyclopropyl-2-methylpropanoyl)-6-(2,4-dimethylthiazole-5-carbonyl)-N-((4R)-2-hydroxy-4-((1-(hydroxymethyl)cyclohex-3-en-1-yl)methoxy)-2-methylpentan-3-yl)-2,6-diazaspiro[3.4]octane-8-carboxamide] | 5.00 to 6.00 | – | < 4.70
